# Results reported in ChEMBL document CHEMBL5233269, “Anticancer potential of spirocompounds in medicinal chemistry: A pentennial expedition” (Eur J Med Chem, 2021).
# Legend:
# K562 = experiment: Anticancer activity against human K562 cells; type: functional, cell-based
# [1] = Antiproliferative activity against human […] cells measured after 48 hrs by MTT assay; type: functional, cell-based
# HeLa [2] = experiment: Antiproliferative activity against human HeLa cells measured after 48 hrs by MTT assay; type: functional, cell-based
# SW480 = experiment: Antiproliferative activity against human SW480 cells measured after 48 hrs by MTT assay; type: functional, cell-based; conditions: SW480, 48 h
# HepG2 [3] = experiment: Antiproliferative activity against human HepG2 cells measured after 48 hrs by MTT assay; type: functional, cell-based; conditions: HepG2, 48 h
# A549 [4] = experiment: Antiproliferative activity against human A549 cells measured after 48 hrs by MTT assay; type: functional, cell-based; conditions: A549, 48 h
# MCF7 [5] = experiment: Antiproliferative activity against human MCF7 cells measured after 48 hrs by MTT assay; type: functional, cell-based; conditions: MCF7, 48 h
# HL-60 = experiment: Antiproliferative activity against human HL-60 cells measured after 48 hrs by MTT assay; type: functional, cell-based; conditions: HL-60, 48 h
# HT-29 = experiment: Antiproliferative activity against human HT-29 cells measured after 48 hrs by MTT assay; type: functional, cell-based; conditions: HT-29, 48 h
# B16-F10 = experiment: Anticancer activity against mouse B16-F10 cells incubated for 48 hrs by MTT assay; type: functional, cell-based; conditions: B16-F10, 48 h
# A549 [6] = experiment: Anticancer activity against human A549 cells assessed as reduction in cell viability incubated for 48 hrs by MTT assay; type: functional, cell-based; conditions: A549, 48 h
# MCF7 [7] = experiment: Anticancer activity against human MCF7 cells assessed as reduction in cell viability incubated for 48 hrs by MTT assay; type: functional, cell-based; conditions: MCF7, 48 h
# MCF7 [8] = experiment: Growth inhibition of human MCF7 cells by SRB assay; type: functional
# MDA-MB-435 = experiment: Growth inhibition of human MDA-MB-435 cells by SRB assay; type: functional
# PC-3 [9] = experiment: Anticancer activity against human PC-3 cells assessed as inhibition of cell growth; type: functional, cell-based
# HepG2 [10] = experiment: Anticancer activity against human HepG2 cells assessed as inhibition of cell viability; type: functional, cell-based
# HCT-116 [11] = experiment: Anticancer activity against human HCT-116 cells assessed as inhibition of cell growth; type: functional, cell-based
# HepG2 [12] = experiment: Anticancer activity against human HepG2 cells; type: functional, cell-based
# MCF7 [13] = experiment: Anticancer activity against human MCF7 cells assessed as inhibition of cell viability; type: functional, cell-based
# A549 [14] = experiment: Anticancer activity against human A549 cells assessed as inhibition of cell proliferation; type: functional, cell-based
# HeLa [15] = experiment: Anticancer activity against human HeLa cells; type: functional, cell-based
# DU-145 = experiment: Anticancer activity against human DU-145 cells; type: functional, cell-based
# MCF7 [16] = experiment: Anticancer activity against human MCF7 cells; type: functional, cell-based
# [17] = molecular target: T1, Amine oxidase [flavin-containing] A (Rattus norvegicus, UniProt P21396); experiment: Inhibition of rat brain MAO-A relative to control; type: tissue-based
# T1 sequence (P21396 whole entry): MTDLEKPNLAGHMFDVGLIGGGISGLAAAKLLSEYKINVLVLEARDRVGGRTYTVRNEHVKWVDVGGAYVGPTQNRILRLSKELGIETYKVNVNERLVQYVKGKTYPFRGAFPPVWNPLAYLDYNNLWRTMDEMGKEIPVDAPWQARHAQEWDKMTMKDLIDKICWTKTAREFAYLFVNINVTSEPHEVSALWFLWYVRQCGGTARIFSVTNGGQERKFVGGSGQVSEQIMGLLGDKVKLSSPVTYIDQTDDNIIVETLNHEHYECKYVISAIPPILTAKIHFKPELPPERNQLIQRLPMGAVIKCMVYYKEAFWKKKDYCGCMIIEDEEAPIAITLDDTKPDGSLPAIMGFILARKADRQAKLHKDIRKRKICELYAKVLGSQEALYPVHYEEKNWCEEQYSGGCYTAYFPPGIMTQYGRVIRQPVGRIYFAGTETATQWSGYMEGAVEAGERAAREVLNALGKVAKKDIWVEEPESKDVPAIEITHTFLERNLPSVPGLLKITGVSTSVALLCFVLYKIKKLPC
# SW-620 = experiment: Cytotoxicity against human SW620 cells; type: functional, cell-based
# A549 [18] = experiment: Cytotoxicity against human A549 cells; type: functional, cell-based
# PC-3 [19] = experiment: Cytotoxicity against human PC-3 cells; type: functional, cell-based
# HCT-116 [20] = experiment: Cytotoxicity against human HCT-116 cells; type: functional, cell-based
smiles,measurement,setting,value
O=C1N(Cc2ccccc2)c2ccccc2[C@@]12[C@H](O)c1ccccc1[C@@H]2[C@]1(CN2CCCCC2)C(=O)N(Cc2ccccc2)c2ccccc21,IC50,K562,9.7 µM
CC(C)CCC[C@@H](C)[C@@H]1CCC2C3C[C@@]4(N=C5C=CC=CN5/C4=N\c4ccccc4)C4CCCC[C@]4(C)C3CC[C@@]21C (some centres undefined),IC50,[1],5.38 µM
same,IC50,HeLa [2],3.84 µM
same,IC50,SW480,5.21 µM
same,IC50,HepG2 [3],4.24 µM
same,IC50,A549 [4],2.62 µM
same,IC50,MCF7 [5],4.8 µM
same,IC50,HL-60,5.07 µM
same,IC50,HT-29,3.1 µM
CCN(CC)C[C@@]1([C@H]2c3ccccc3[C@@H](O)[C@]23C(=O)N(C)c2c(C)cccc23)C(=O)N(C)c2c(C)cccc21,IC50,K562,26.7 µM
CCN(CC)C[C@@]1([C@H]2c3ccccc3[C@@H](O)[C@]23C(=O)N(C)c2ccc(C)cc23)C(=O)N(C)c2ccc(C)cc21,IC50,K562,27.8 µM
COC1=CC2(C=C(C(=O)Oc3cccc(F)c3F)c3cc(OC)cc(OC)c32)C(OC)=CC1=O (centres undefined),IC50,B16-F10,10.9 µM
same,IC50,A549 [6],9.58 µM
same,IC50,MCF7 [7],13.1 µM
CCN1C(=O)[C@@]2(c3cccc(Cl)c31)[C@H](O)c1ccccc1[C@@H]2[C@]1(CN2CCCC2)C(=O)N(CC)c2c(Cl)cccc21,IC50,K562,8.8 µM
N#CC1=C(N)OC2=C(C(=O)c3ccccc32)C12C(=O)Nc1ccc(I)cc12 (centres undefined),GI50,MCF7 [8],62 µM
same,GI50,MDA-MB-435,> 100 µM
CC1CCC2(CC1)SC/C(=N\c1nnc(SC3OC[C@@H](O)[C@H](O)[C@H]3O)s1)N2c1ccc(F)cc1 (some centres undefined),IC50,PC-3 [9],9.49 µM
same,IC50,HepG2 [10],0.599 µM
same,IC50,HCT-116 [11],0.107 µM
N#CC1=C(N)NC2=C(CCCCCC2)C12C(=O)Nc1ccccc12 (centres undefined),IC50,HepG2 [12],39 µM
same,IC50,MCF7 [13],32 µM
O=C1OCC2Nc3ccccc3NC3(C(=O)N(Cc4ccccc4)c4ccc(Cl)cc43)C12 (centres undefined),IC50,A549 [14],3.89 µM
same,IC50,HeLa [15],15.9 µM
same,IC50,DU-145,2.19 µM
same,IC50,MCF7 [16],9.28 µM
COC1=CC2(C=C(C(=O)NNc3ccc(F)c(F)c3)c3cc(OC)cc(OC)c32)C(OC)=CC1=O (centres undefined),IC50,B16-F10,20.9 µM
same,IC50,A549 [6],20.4 µM
same,IC50,MCF7 [7],15.6 µM
O=C1OCC2Nc3ccc(Cl)cc3NC3(C(=O)Nc4ccccc43)C12 (centres undefined),IC50,A549 [14],2.95 µM
same,IC50,HeLa [15],5.37 µM
same,IC50,DU-145,1.7 µM
same,IC50,MCF7 [16],9.51 µM
CCn1c(SC)nc2c(c1=O)C1(CCCCC1)Cc1ccccc1-2,inhibition (INH),[17],66%
CC1CCC2(CC1)SC/C(=N\c1nnc(SC3O[C@H](CO)[C@@H](O)[C@H](O)[C@H]3O)s1)N2c1ccc(F)cc1 (some centres undefined),IC50,PC-3 [9],0.112 µM
same,IC50,HepG2 [10],0.334 µM
same,IC50,HCT-116 [11],0.106 µM
Cc1ccc2c(c1)C1(Nc3ccccc3NC3COC(=O)C31)C(=O)N2 (centres undefined),IC50,A549 [14],1.55 µM
same,IC50,HeLa [15],9.58 µM
same,IC50,DU-145,1.35 µM
same,IC50,MCF7 [16],2.14 µM
O=C1Oc2cc(Cl)ccc2C2C1CN(C(=O)N1CCCCC1)C21C(=O)Nc2ccccc21 (centres undefined),IC50,SW-620,0.49 µM
same,IC50,A549 [18],7.09 µM
same,IC50,PC-3 [19],> 50 µM
same,IC50,HCT-116 [20],15.8 µM
N#CC1=C(N)NC2=C(CCCC2)C12C(=O)Nc1ccc(I)cc12 (centres undefined),IC50,HepG2 [12],26 µM
same,IC50,MCF7 [13],28 µM
CCn1c(SCC(=O)Nc2ccccc2Cl)nc2c(c1=O)C1(CCCCC1)Cc1ccccc1-2,inhibition (INH),[17],66%
N#CC1=C(N)OC2=C(C(=O)c3ccccc32)C12C(=O)Nc1ccc(Cl)cc12 (centres undefined),GI50,MCF7 [8],> 100 µM
same,GI50,MDA-MB-435,2.1 µM
Cc1ccc(-c2nc(SC3O[C@H](CO)[C@@H](O)[C@H](O)[C@H]3O)nc3c2SC2(CCCCC2)N3c2ccc(F)cc2)o1 (some centres undefined),IC50,PC-3 [9],0.282 µM
same,IC50,HepG2 [10],0.285 µM
same,IC50,HCT-116 [11],0.0958 µM
COC1=CC2(C=C(C(=O)Oc3c(F)cc(F)cc3F)c3cc(OC)cc(OC)c32)C(OC)=CC1=O (centres undefined),IC50,B16-F10,9.63 µM
same,IC50,A549 [6],10.4 µM
same,IC50,MCF7 [7],12.3 µM
CC(=O)OC[C@H]1OC(Sc2nnc(/N=C3\CSC4(CCCCC4)N3c3ccc(F)cc3)s2)[C@H](OC(C)=O)[C@@H](OC(C)=O)[C@@H]1OC(C)=O (some centres undefined),IC50,PC-3 [9],0.121 µM
same,IC50,HepG2 [10],0.176 µM
same,IC50,HCT-116 [11],0.0922 µM
O=C1OCC2Nc3ccccc3NC3(C(=O)N(Cc4ccccc4)c4ccc(Br)cc43)C12 (centres undefined),IC50,A549 [14],3.8 µM
same,IC50,HeLa [15],11.9 µM
same,IC50,DU-145,3.16 µM
same,IC50,MCF7 [16],2.34 µM
CCN1C(=O)[C@@]2(c3cccc(C)c31)[C@H](O)c1ccccc1[C@@H]2[C@]1(CN2CCCC2)C(=O)N(CC)c2c(C)cccc21,IC50,K562,21.4 µM
